Test system: L5178Y target cells
Assay: MLTC assay of CTL activity, L5178Y target cells
Format: cell-based, mouse
Description: A mixed lymphocyte tumor culture (MLTC) immunoassay, used to determine the cytotoxic lymphocyte (CTL) activity employs lymphocytes from either immunized (sensitized) mice or DBA/2 tumor dormant state animals in various stages of the tumor dormant state (TDS). The assay employs L5178Y target cells labeled with ^51 Chromium and effector cells (sensitized lymphocytes) from the above-mentioned sources. Effector-target cell ratios will vary with different experimental conditions and may or may not include irradiated stimulator L5178Y cells. Results are expressed as % lysis of target cells based on ratio of cpm of test group over cpm of total release (maximum) both of which are corrected for spontaneous release of ^51 Cr. The assay can be performed as an 8 or 18 hour release assay.
Ten days later the resultant tumor nodule, about 1 cm in size, is surgically excised. If the excision was successful, no subcutaneous tumors develop at the site of implantation. […] These mice are considered to be in the tumor dormant state.
The effect of Cpd. 1 on cytotoxic lymphocyte (CTL) activity is measured using five DBA/2 mice in the early stage of the TDS, 10 days after challenge with viable L5178Y tumor cells. Six doses of Cpd. 1, 0.001, 0.01, 0.1, 1.0, 10, or 100 μg/ml or just buffer are added in 100 μl volumes to MLTC microculture wells containing washed spleen lymphocytes from the DBA/2 mice, effector, and L5178Y target cells at varying E/T ratios. The MLTC reaction is performed in the presence or absence of irradiated L5178Y stimulator cells.
Five DBA/2 mice in the early stage of the TDS, 10 days after challenge with viable L5178Y tumor cells were used to measure the effect of Cpd. 1 on CTL activity. Two doses of Cpd. 1, 10, or 100 μg/ml, or just buffer were added in 100 μl volumes to the MLTC microculture wells containing washed spleen lymphocytes from the DBA/2 mice, effector and L5178Y target cells at varying E/T ratios. The MLTC reaction was performed in the presence or absence of irradiated L5178Y stimulator cells.
DBA/2 mice in the early stage of TDS, […] with viable L5178Y tumor cells, were used to measure the effect of Cpd. 2 on CTL activity. Cpd. 2, 0.1, 1.0, 10 or 100 μg/ml, or just buffer was added in 100 μl volumes to MLTC microculture wells containing washed spleen lymphocytes from DBA/2 mice, effector, and L5178Y target cells at varying E/T ratios. The MLTC reaction was performed in the presence or absence of irradiated L5178Y stimulator cells.
An MLTC assay is performed to assess the CTL activity and tumor target cell specificity of Cpd. 1. Tumor dormant spleen cells and normal spleen cells of DBA/2 mice are used as effector cells. Irradiated L5178Y cells are used as stimulator cells. ^51 Cr-labeled L5178Y cells and FLC-745 cells are used as target cells. The effector/target ratios studied are 100:1, 30:1 and 10:1.

For Cc1ccc(C2(O)C(=O)OC3C(O)COC32O)o1.Cc1ccc(C2(O)C(=O)OC3C(O)COC32O)o1.O=C1CCC(=O)O1 (stereo not drawn) [Cpd. 1], the “% Lysis” value (0.001 μg/ml, E/T 10:1, TDS DBA/2, with stimulator cells) was 16.7%, the “% Lysis” value (0.001 μg/ml, E/T 10:1, TDS DBA/2, without stimulator cells) was 3.9% and the “% Lysis” value (0.001 μg/ml, E/T 30:1, TDS DBA/2, with stimulator cells) was 40.2%. For the same compound, the “% Lysis” value (0.001 μg/ml, E/T 30:1, TDS DBA/2, without stimulator cells) was 12.2%, the “% Lysis” value (0.001 μg/ml, E/T 100:1, TDS DBA/2, with stimulator cells) was 71.1% and the “% Lysis” value (0.001 μg/ml, E/T 100:1, TDS DBA/2, without stimulator cells) was 23.4%. For the same compound, the “% Lysis” value (0.01 μg/ml, E/T 10:1, TDS DBA/2, with stimulator cells) was 20.6%, the “% Lysis” value (0.01 μg/ml, E/T 10:1, TDS DBA/2, without stimulator cells) was 3.5% and the “% Lysis” value (0.01 μg/ml, E/T 30:1, TDS DBA/2, with stimulator cells) was 55.8%. For the same compound, the “% Lysis” value (0.01 μg/ml, E/T 30:1, TDS DBA/2, without stimulator cells) was 15.7%, the “% Lysis” value (0.01 μg/ml, E/T 100:1, TDS DBA/2, with stimulator cells) was 77.1% and the “% Lysis” value (0.01 μg/ml, E/T 100:1, TDS DBA/2, without stimulator cells) was 26.0%. The “% Lysis” value (0.1 μg/ml, E/T 10:1, TDS DBA/2, with stimulator cells) was 20.2%, the “% Lysis” value (0.1 μg/ml, E/T 10:1, TDS DBA/2, without stimulator cells) was 3.5% and the “% Lysis” value (0.1 μg/ml, E/T 30:1, TDS DBA/2, with stimulator cells) was 51.0%. The “% Lysis” value (0.1 μg/ml, E/T 30:1, TDS DBA/2, without stimulator cells) was 14.8%, the “% Lysis” value (0.1 μg/ml, E/T 100:1, TDS DBA/2, with stimulator cells) was 79.0% and the “% Lysis” value (0.1 μg/ml, E/T 100:1, TDS DBA/2, without stimulator cells) was 31.6%. For the same compound, the “% Lysis” value (1.0 μg/ml, E/T 10:1, TDS DBA/2, with stimulator cells) was 15.6%, the “% Lysis” value (1.0 μg/ml, E/T 10:1, TDS DBA/2, without stimulator cells) was 4.6% and the “% Lysis” value (1.0 μg/ml, E/T 30:1, TDS DBA/2, with stimulator cells) was 46.0%. For the same compound, the “% Lysis” value (1.0 μg/ml, E/T 30:1, TDS DBA/2, without stimulator cells) was 20.0%, the “% Lysis” value (1.0 μg/ml, E/T 100:1, TDS DBA/2, with stimulator cells) was 71.5% and the “% Lysis” value (1.0 μg/ml, E/T 100:1, TDS DBA/2, without stimulator cells) was 40.1%. The “% Lysis” value (10 μg/ml, E/T 6.25:1, TDS DBA/2, with stimulator cells) was 60.5%, the “% Lysis” value (10 μg/ml, E/T 6.25:1, TDS DBA/2, without stimulator cells) was “.7%” and the “% Lysis” value (10 μg/ml, E/T 10:1, TDS DBA/2, with stimulator cells) was 15.9%. The “% Lysis” value (10 μg/ml, E/T 10:1, TDS DBA/2, without stimulator cells) was 4.6%, the “% Lysis” value (10 μg/ml, E/T 12.5:1, TDS DBA/2, with stimulator cells) was 67.1% and the “% Lysis” value (10 μg/ml, E/T 12.5:1, TDS DBA/2, without stimulator cells) was 6.9%. The “% Lysis” value (10 μg/ml, E/T 25:1, TDS DBA/2, with stimulator cells) was 72.0%, the “% Lysis” value (10 μg/ml, E/T 25:1, TDS DBA/2, without stimulator cells) was 8.1% and the “% Lysis” value (10 μg/ml, E/T 30:1, TDS DBA/2, with stimulator cells) was 42.0%. For the same compound, the “% Lysis” value (10 μg/ml, E/T 30:1, TDS DBA/2, without stimulator cells) was 16.8%, the “% Lysis” value (10 μg/ml, E/T 50:1, TDS DBA/2, with stimulator cells) was 75.7% and the “% Lysis” value (10 μg/ml, E/T 50:1, TDS DBA/2, without stimulator cells) was 12.8%. For the same compound, the “% Lysis” value (10 μg/ml, E/T 100:1, TDS DBA/2, with stimulator cells) was 74.3%, the “% Lysis” value (10 μg/ml, E/T 100:1, TDS DBA/2, without stimulator cells) was 36.3% and the “% Lysis” value (100 μg/ml, E/T 6.25:1, TDS DBA/2, with stimulator cells) was 56.3%. For the same compound, the “% Lysis” value (100 μg/ml, E/T 6.25:1, TDS DBA/2, without stimulator cells) was 6.1%, the “% Lysis” value (100 μg/ml, E/T 10:1, TDS DBA/2, with stimulator cells) was 21.2% and the “% Lysis” value (100 μg/ml, E/T 10:1, TDS DBA/2, without stimulator cells) was 8.6%. For the same compound, the “% Lysis” value (100 μg/ml, E/T 12.5:1, TDS DBA/2, with stimulator cells) was 75.7%, the “% Lysis” value (100 μg/ml, E/T 12.5:1, TDS DBA/2, without stimulator cells) was 11.1% and the “% Lysis” value (100 μg/ml, E/T 25:1, TDS DBA/2, with stimulator cells) was 79.8%. The “% Lysis” value (100 μg/ml, E/T 25:1, TDS DBA/2, without stimulator cells) was 16.6%, the “% Lysis” value (100 μg/ml, E/T 30:1, TDS DBA/2, with stimulator cells) was 54.2% and the “% Lysis” value (100 μg/ml, E/T 30:1, TDS DBA/2, without stimulator cells) was 18.7%. The “% Lysis” value (100 μg/ml, E/T 50:1, TDS DBA/2, with stimulator cells) was 71.6%, the “% Lysis” value (100 μg/ml, E/T 50:1, TDS DBA/2, without stimulator cells) was 21.8% and the “% Lysis” value (100 μg/ml, E/T 100:1, TDS DBA/2, with stimulator cells) was 87.3%. For the same compound, the “% Lysis” value (100 μg/ml, E/T 100:1, TDS DBA/2, without stimulator cells) was 42.0%, the “% Lysis” value (E + D (TDS effector, no stimulator), E/T 10:1) was 9.0% and the “% Lysis” value (E + D (TDS effector, no stimulator), E/T 30:1) was 29.8%. For the same compound, the “% Lysis” value (E + D (TDS effector, no stimulator), E/T 100:1) was 52.8%, the “% Lysis” value (E + S + D (TDS effector, stimulator), E/T 10:1) was 34.9% and the “% Lysis” value (E + S + D (TDS effector, stimulator), E/T 30:1) was 69.2%. For the same compound, the “% Lysis” value (E + S + D (TDS effector, stimulator), E/T 100:1) was 82.3%, the “% Lysis” value (N + D (normal effector, no stimulator), E/T 10:1) was -10.3% and the “% Lysis” value (N + D (normal effector, no stimulator), E/T 30:1) was -11.4%. The “% Lysis” value (N + D (normal effector, no stimulator), E/T 100:1) was -12.4%, the “% Lysis” value (N + S + D (normal effector, stimulator), E/T 10:1) was -10.9% and the “% Lysis” value (N + S + D (normal effector, stimulator), E/T 30:1) was -9.7%. For the same compound, the “% Lysis” value (N + S + D (normal effector, stimulator), E/T 100:1) was -9.5%, the “CTL activity of effector cells” value (in the presence of stimulator cells (Example 28)) was “significant specific enhancement of CTL activity” and the CTL activity (several concentrations, any E/T ratio, with or without stimulator cells, TDS) was “significant increase in CTL activity”.
